The text below walks through data of ChEMBL document CHEMBL1201862, “PubChem BioAssay data set” (2004).

Test systems include CAKI-1; HCT-15; HOP-62; IGROV-1; K562; KM12; LOX IMVI; MCF7; OVCAR-4; RPMI-8226; RXF 393; SF-295; SK-MEL-5; SK-OV-3; SNB-75; SR; UACC-62; HCT-116; 786-0; NCI-H522.
Common to all, as to experiment: NCI tumour cell line growth inhibition, 48 h

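Where inhibition never reached the appropriate level, the endpoint shown equals the highest concentration tested. Otherwise, values were interpolated linearly from a five-concentration, 48-hour dose response in 96-well plates. The concentration for 50% growth inhibition is given as GI50.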 Active and inactive are the calls of the source. Cut-off read from the data, not from the text of the source: active = GI50 up to about 1.1 µM and inactive = higher.

For the compound `CCOC(=O)c1csc(NC(=O)C(C)N2CCCCC2)n1` (configuration not stated), the GI50 is > 100 µM (inactive) in the test with CAKI-1; above 100 µM in the test on HCT-15; > 100 µM (inactive) in the test on HOP-62; > 100 µM (inactive) with IGROV-1; > 100 µM (inactive) with K562; > 100 µM (inactive) in the test with KM12. Also, the GI50 in the test on LOX IMVI, in the test on MCF7, with OVCAR-4, with RPMI-8226, in the test with RXF 393 and in the test with SF-295 was > 100 µM (inactive) in each case. Also, the GI50 with SK-MEL-5 was > 100 µM (inactive); in the test with SK-OV-3 it was > 100 µM (inactive); in the test with SNB-75 it was > 100 µM (inactive); with SR it was 2.51 µM (inactive); with UACC-62 it was > 100 µM (inactive).

`COc1cc(C(=O)C2CC3(CCC2(O)c2cc(OC)c(OC)c(OC)c2)CC(=O)Nc2ccccc2C3=O)cc(OC)c1OC` (configuration not stated): the GI50 in the test with CAKI-1 is > 100 µM (inactive); with HCT-116, 67.1 µM (inactive); in the test on HCT-15, 50.6 µM; with HOP-62 it was > 100 µM (inactive); in the test on IGROV-1, > 100 µM (inactive); in the test with K562 it was 63.8 µM (inactive). For the same compound, the GI50 was 67.6 µM (inactive) in the test with LOX IMVI; 60.4 µM (inactive) in the test on MCF7; 20.2 µM (inactive) with OVCAR-4; 99.5 µM (inactive) in the test with RXF 393; 98.2 µM (inactive) in the test with SF-295; 21.3 µM (inactive) in the test with SK-MEL-5. Also, the GI50 in the test with SK-OV-3 is > 100 µM (inactive); with SNB-75 it was 24.5 µM (inactive); in the test on SR it was 29.6 µM (inactive); with UACC-62, > 100 µM (inactive).

`CN1c2ccccc2SC2C(c3ccccc3)=NOC21` (configuration not stated): the GI50 was 35.4 µM (inactive) with 786-0; 40.6 µM (inactive) with CAKI-1; 23.7 µM (inactive) in the test on HCT-116; 15.5 µM in the test with HCT-15; 33.8 µM (inactive) in the test on HOP-62; 41.6 µM (inactive) in the test with IGROV-1. Moreover, the GI50 in the test with K562 was 22.6 µM (inactive); in the test with KM12, 47.8 µM (inactive); with MCF7 it was 42.7 µM (inactive); in the test on NCI-H522 it was 30.1 µM (inactive); in the test with OVCAR-4 it was 65.8 µM (inactive); in the test with RXF 393 it was > 100 µM (inactive). Moreover, the GI50 is 30.7 µM (inactive) in the test with SF-295; > 10 µM (inactive) with SK-MEL-5; 64.1 µM (inactive) with SK-OV-3; 16 µM (inactive) in the test on SNB-75; 62.1 µM (inactive) in the test with SR; 35.1 µM (inactive) in the test with UACC-62.

With `CN1C(=O)[C@@H]2[C@@H]3c4ccccc4N(S(=O)(=O)C(F)(F)F)[C@@H]3c3[nH]c4ccccc4c3[C@@H]2C1=O`, the GI50 in the test with 786-0 was 63.7 µM (inactive); in the test on CAKI-1, > 100 µM (inactive); in the test with HCT-116, 17.2 µM (inactive); with HCT-15, 16.9 µM; in the test with HOP-62 it was > 100 µM (inactive); in the test with IGROV-1, 0.175 µM (active). In addition, the GI50 with K562 is 7.28 µM (inactive); with LOX IMVI it was > 100 µM (inactive); with MCF7, 11.6 µM (inactive); with OVCAR-4 it was 82.4 µM (inactive); with RPMI-8226 it was 8.39 µM (inactive); in the test on RXF 393, 10.3 µM (inactive). For the same compound, the GI50 in the test with SF-295 was 50.7 µM (inactive); in the test with SK-MEL-5, 36.4 µM (inactive); in the test on SK-OV-3 it was > 100 µM (inactive); in the test on SNB-75, 13.2 µM (inactive); in the test with SR, 4.9 µM (inactive); in the test with UACC-62, > 100 µM (inactive).

On to `CCc1ccc(COC(=O)C2=C(C)NC(C)=C(C(=O)OCc3ccc(CC)cn3)C2C2=COCCO2)nc1`, for which the GI50 in the test on 786-0 was 23.2 µM (inactive); in the test with CAKI-1 it was 23.9 µM (inactive); in the test on HCT-116 it was 16.3 µM (inactive); with HCT-15 it was 22.7 µM; with HOP-62, 17.5 µM (inactive); in the test with IGROV-1 it was 39.8 µM (inactive). For the same compound, the GI50 is 18.2 µM (inactive) in the test on K562; 30.7 µM (inactive) in the test with KM12; 15.2 µM (inactive) with LOX IMVI; 19.5 µM (inactive) in the test on MCF7; 19.5 µM (inactive) with NCI-H522; 25.1 µM (inactive) in the test with OVCAR-4. Moreover, the GI50 in the test with RXF 393 was 15.4 µM (inactive); with SF-295, 24.9 µM (inactive); in the test on SK-MEL-5, 13.3 µM (inactive); with SK-OV-3 it was 16.6 µM (inactive); in the test with SNB-75, 14.4 µM (inactive); in the test on SR, 21.8 µM (inactive). Moreover, the GI50 in the test with UACC-62 was 13.5 µM (inactive).

With `CC1(C)CC(=O)c2c(nc3c4c([nH]c(-c5ccc([N+](=O)[O-])cc5)c24)CC(C)(C)C3)C1`, the GI50 with 786-0 was 21.3 µM (inactive); in the test on CAKI-1, 44.1 µM (inactive); in the test on HCT-116, 41.1 µM (inactive); in the test with HCT-15 it was 25.2 µM; with HOP-62, > 100 µM (inactive); in the test with K562 it was 20.1 µM (inactive). Also, the GI50 in the test with KM12 was 37.4 µM (inactive); in the test with LOX IMVI, 31.3 µM (inactive); in the test with MCF7 it was 27.7 µM (inactive); in the test on NCI-H522, 48.5 µM (inactive); in the test on OVCAR-4 it was 34 µM (inactive); in the test with RXF 393, 25.8 µM (inactive). Moreover, the GI50 in the test on SF-295 was 30 µM (inactive); in the test on SK-MEL-5, 26.2 µM (inactive); in the test on SK-OV-3, > 100 µM (inactive); with SNB-75, 24.8 µM (inactive); in the test with SR, 1.07 µM (active); in the test with UACC-62, 21.7 µM (inactive).

As to `O=C1Cc2c([nH]c3cc(Br)ccc23)-c2ccccc2N1`, the GI50 in the test with 786-0 was 36 µM (inactive); with HCT-116, 3.4 µM (inactive); in the test on HCT-15, 4.21 µM; in the test with HOP-62, 11.7 µM (inactive); in the test on IGROV-1, 16.4 µM (inactive); in the test on K562, 4.09 µM (inactive). Besides, the GI50 with KM12 was 18.6 µM (inactive); in the test on LOX IMVI it was 2.9 µM (inactive); in the test with MCF7 it was 34.6 µM (inactive); in the test with NCI-H522, 15 µM (inactive); in the test with OVCAR-4 it was 10.3 µM (inactive); in the test on RXF 393, 3.24 µM (inactive). Besides, the GI50 is 22.5 µM (inactive) in the test on SF-295; 16 µM (inactive) in the test with SK-MEL-5; 19.9 µM (inactive) in the test with SK-OV-3; 23.8 µM (inactive) in the test with SNB-75; 21.9 µM (inactive) in the test with SR; 12.6 µM (inactive) with UACC-62.

With `CN(C)N1C(=O)S/C(=C\c2ccc([N+](=O)[O-])cc2)C1=O`, the GI50 is > 100 µM (inactive) in the test with 786-0; > 100 µM (inactive) with CAKI-1; > 100 µM (inactive) with HCT-116; above 100 µM in the test with HCT-15; > 100 µM (inactive) in the test on HOP-62; > 100 µM (inactive) in the test on IGROV-1. In addition, the GI50 in the test on KM12, in the test on LOX IMVI, in the test with MCF7, in the test with NCI-H522, in the test on OVCAR-4 and in the test with RXF 393 was > 100 µM (inactive) each time. The GI50 in the test on SF-295 was > 100 µM (inactive); with SK-MEL-5, > 100 µM (inactive); with SK-OV-3 it was > 100 µM (inactive); in the test with SNB-75, 0.0458 µM (active); in the test with SR, 57.4 µM (inactive); in the test with UACC-62, > 100 µM (inactive).

As to `O=C1C(N2CCNCC2)=C(Cl)C(=O)c2ncccc21`, the GI50 with 786-0 was > 10 µM (inactive); in the test with CAKI-1, > 10 µM (inactive); with HCT-116, 1.86 µM (inactive); in the test on HCT-15, above 10 µM; with HOP-62, > 10 µM (inactive); in the test on IGROV-1, > 10 µM (inactive). Moreover, the GI50 in the test with K562 was > 10 µM (inactive); with KM12 it was > 10 µM (inactive); with MCF7 it was 3.02 µM (inactive); in the test on OVCAR-4, > 10 µM (inactive); in the test with RPMI-8226 it was 3.37 µM (inactive); in the test on RXF 393, > 10 µM (inactive). For the same compound, the GI50 was > 10 µM (inactive) with SF-295; 5.79 µM (inactive) in the test with SK-MEL-5; > 10 µM (inactive) in the test on SK-OV-3; > 10 µM (inactive) with SNB-75; > 10 µM (inactive) in the test with SR; > 10 µM (inactive) in the test with UACC-62.

On to `CN(C)/N=N/c1ccc(NC=O)cc1`, for which the GI50 in the test on 786-0 is > 100 µM (inactive); in the test with CAKI-1, > 100 µM (inactive); in the test with HCT-116, > 100 µM (inactive); in the test on HCT-15, above 100 µM; with HOP-62 it was > 100 µM (inactive); with IGROV-1 it was > 100 µM (inactive). For the same compound, the GI50 with K562 is 43.3 µM (inactive); with KM12, > 100 µM (inactive); with LOX IMVI, > 100 µM (inactive); with MCF7 it was > 100 µM (inactive); in the test with OVCAR-4 it was > 100 µM (inactive); in the test with RPMI-8226, 69 µM (inactive). The GI50 with RXF 393 is > 100 µM (inactive); in the test on SF-295, > 100 µM (inactive); in the test on SK-MEL-5 it was > 100 µM (inactive); in the test on SK-OV-3, > 100 µM (inactive); in the test on SNB-75, > 100 µM (inactive); in the test on SR it was 48.6 µM (inactive). Moreover, the GI50 with UACC-62 is 40.6 µM (inactive).

On to `CCC(=O)OCN(C)c1nc(N(C)COC(=O)CC)nc(N(C)COC(=O)CC)n1`, for which the GI50 is 63.8 µM (inactive) in the test on CAKI-1; 22.9 µM (inactive) in the test on HCT-116; 21.4 µM with HCT-15; > 100 µM (inactive) in the test with HOP-62; > 100 µM (inactive) in the test on IGROV-1; 13.7 µM (inactive) in the test on K562. The GI50 with KM12 was 34.5 µM (inactive); in the test with LOX IMVI it was 18 µM (inactive); in the test with MCF7, 42 µM (inactive); in the test on OVCAR-4, 30.5 µM (inactive); with RPMI-8226, 27.4 µM (inactive); in the test with RXF 393, 10.9 µM (inactive). Moreover, the GI50 with SF-295 was > 100 µM (inactive); in the test with SK-MEL-5 it was 22.9 µM (inactive); with SK-OV-3 it was > 100 µM (inactive); in the test with SNB-75, > 100 µM (inactive); in the test with SR, 26.7 µM (inactive); in the test on UACC-62 it was 18.6 µM (inactive).
